Source: patent US11464782B2, “Method of treating pain or interstitial cystitis using indole compound” (Japan Tobacco Inc., priority 2018, dated 2022)
Where a name gives a salt, the structure may show the parent alone.

Experiments:
[1] = test system: NGF-induced thermal hyperalgesia; assay: NGF-induced thermal hyperalgesia in rats (plantar test, paw withdrawal latency); type: in vivo, rat
Description: In order to induce a pain-related behavior (withdrawal behavior), NGF was injected into the plantar area of the left hind paw of rats and the thermal latencies/mechanical thresholds were measured. The effects of Compound A on these withdrawal behaviors were investigated. At 2 days before the injection of NGF, the thermal latencies or mechanical thresholds were measured for acclimation to the experimental environment. On the day before injection of NGF, body weights and values of the thermal latencies or mechanical thresholds were obtained. 50 μL of NGF solution was injected intraplantar to left hind paw of rats. 0.5 μg/site of NGF was selected in the evaluation of thermal stimuli and 1 μg/site was selected in that of mechanical stimuli. A monohydrochloride of Compound A (1, 3, or 10 mg/kg) was administered orally at the same time as the NGF injection. The latencies to thermal stimuli were measured at 3 and 6 hours after injection of NGF solution, and the thresholds to mechanical stimuli were measured at 1, 3 and 6 hours after injection of NGF solution. The evaluation was performed as a blind test of each group. The thermal latency was measured using a plantar test apparatus. An infrared heat stimuli was delivered to the plantar area of the hind paw and the time to withdraw the paw from the heat source was recorded automatically as the thermal latency. The measurement was performed 5 times for both hind paws of each animal, the averages of the last 3 values in each hind paw were accounted as the thermal latencies of each animal. The measurement for acclimation was performed only 3 times.

[2] = test system: NGF-induced mechanical hyperalgesia; assay: NGF-induced mechanical hyperalgesia in rats (pressure analgesy-meter, paw withdrawal threshold); type: in vivo, rat
Description: In order to induce a pain-related behavior (withdrawal behavior), NGF was injected into the plantar area of the left hind paw of rats and the thermal latencies/mechanical thresholds were measured. The effects of Compound A on these withdrawal behaviors were investigated. At 2 days before the injection of NGF, the thermal latencies or mechanical thresholds were measured for acclimation to the experimental environment. On the day before injection of NGF, body weights and values of the thermal latencies or mechanical thresholds were obtained. 50 μL of NGF solution was injected intraplantar to left hind paw of rats. 0.5 μg/site of NGF was selected in the evaluation of thermal stimuli and 1 μg/site was selected in that of mechanical stimuli. A monohydrochloride of Compound A (1, 3, or 10 mg/kg) was administered orally at the same time as the NGF injection. The latencies to thermal stimuli were measured at 3 and 6 hours after injection of NGF solution, and the thresholds to mechanical stimuli were measured at 1, 3 and 6 hours after injection of NGF solution. The evaluation was performed as a blind test of each group. The mechanical threshold was measured using a pressure analgesy-meter. A mechanical stimulus (pressure) increased at a constant rate was added to the hind paw, and the pressure under load until animals withdrew its hind paw or vocalization was recorded as the mechanical threshold (mmHg).

[3] = 1 mg/kg oral, right hind paw (uninjected side), 3 hr
[4] = 1 mg/kg oral, right hind paw (uninjected side), 6 hr
[5] = 1 mg/kg oral, right hind paw (uninjected side), pre
[6] = 3 mg/kg oral, right hind paw (uninjected side), 3 hr
[7] = 3 mg/kg oral, right hind paw (uninjected side), 6 hr
[8] = 3 mg/kg oral, right hind paw (uninjected side), pre
[9] = 10 mg/kg oral, right hind paw (uninjected side), 3 hr
[10] = 10 mg/kg oral, right hind paw (uninjected side), 6 hr
[11] = 10 mg/kg oral, right hind paw (uninjected side), pre

With `C[C@@H](C(=O)N(C)c1ccc2cc(-c3n[nH]c4c3CCC(C)(C)C4)[nH]c2c1)N1CCOCC1` [Compound A•HCl] as the compound, how does the “Paw Withdrawal Latency” value ([1]; 1 mg/kg oral, left hind paw (injected side, NGF 0.5 μg/site), 3 hr) read?
The value was 10.0 ± 2.6 s.

What about the “Paw Withdrawal Latency” value ([1]; 1 mg/kg oral, left hind paw (injected side, NGF 0.5 μg/site), 6 hr) of the same compound?
The value was 8.7 ± 2.0 s.

What about the “Paw Withdrawal Latency” value ([1]; 1 mg/kg oral, left hind paw (injected side, NGF 0.5 μg/site), pre) of the same compound?
Its value is 11.4 ± 1.2 s.

What about the “Paw Withdrawal Latency” value [1, 3] of the same compound?
Its value is 10.9 ± 1.4 s.

What about the “Paw Withdrawal Latency” value [1, 4] of the same compound?
The value was 10.8 ± 2.4 s.

And the “Paw Withdrawal Latency” value [1, 5]?
Its value is 11.6 ± 1.1 s.

What about the “Paw Withdrawal Latency” value ([1]; 3 mg/kg oral, left hind paw (injected side, NGF 0.5 μg/site), 3 hr) of the same compound?
Its value is 10.3 ± 1.6 s.

And the “Paw Withdrawal Latency” value ([1]; 3 mg/kg oral, left hind paw (injected side, NGF 0.5 μg/site), 6 hr)?
Its value is 9.9 ± 1.5 s.

What about the “Paw Withdrawal Latency” value ([1]; 3 mg/kg oral, left hind paw (injected side, NGF 0.5 μg/site), pre) of the same compound?
Its value is 11.2 ± 1.9 s.

What about the “Paw Withdrawal Latency” value [1, 6] of the same compound?
The value was 12.3 ± 2.2 s.

And the “Paw Withdrawal Latency” value [1, 7]?
The value was 11.9 ± 1.9 s.

What about the “Paw Withdrawal Latency” value [1, 8] of the same compound?
Its value is 11.6 ± 1.5 s.

What about the “Paw Withdrawal Latency” value ([1]; 10 mg/kg oral, left hind paw (injected side, NGF 0.5 μg/site), 3 hr) of the same compound?
Its value is 11.6 ± 2.4 s.

What about the “Paw Withdrawal Latency” value ([1]; 10 mg/kg oral, left hind paw (injected side, NGF 0.5 μg/site), 6 hr) of the same compound?
Its value is 11.3 ± 1.4 s.

And the “Paw Withdrawal Latency” value ([1]; 10 mg/kg oral, left hind paw (injected side, NGF 0.5 μg/site), pre)?
The value was 12.0 ± 1.1 s.

And the “Paw Withdrawal Latency” value [1, 9]?
Its value is 11.9 ± 2.7 s.

What about the “Paw Withdrawal Latency” value [1, 10] of the same compound?
Its value is 11.5 ± 1.2 s.

What about the “Paw Withdrawal Latency” value [1, 11] of the same compound?
Its value is 11.9 ± 1.2 s.

What about the “Paw Withdrawal Threshold (mmHg)” value ([2]; 1 mg/kg oral, left hind paw (injected side, NGF 1 μg/site), 1 hr) of the same compound?
Its value is 107 ± 17 mmHg.

And the “Paw Withdrawal Threshold (mmHg)” value ([2]; 1 mg/kg oral, left hind paw (injected side, NGF 1 μg/site), 3 hr)?
Its value is 104 ± 20 mmHg.

And the “Paw Withdrawal Threshold (mmHg)” value ([2]; 1 mg/kg oral, left hind paw (injected side, NGF 1 μg/site), 6 hr)?
The value was 90 ± 11 mmHg.

And the “Paw Withdrawal Threshold (mmHg)” value ([2]; 1 mg/kg oral, left hind paw (injected side, NGF 1 μg/site), Pre)?
Its value is 126 ± 21 mmHg.

And the “Paw Withdrawal Threshold (mmHg)” value ([2]; 1 mg/kg oral, right hind paw (uninjected side), 1 hr)?
Its value is 134 ± 16 mmHg.

And the “Paw Withdrawal Threshold (mmHg)” value [2, 3]?
The value was 135 ± 21 mmHg.

What about the “Paw Withdrawal Threshold (mmHg)” value [2, 4] of the same compound?
Its value is 133 ± 9 mmHg.

And the “Paw Withdrawal Threshold (mmHg)” value [2, 5]?
Its value is 132 ± 15 mmHg.

And the “Paw Withdrawal Threshold (mmHg)” value ([2]; 3 mg/kg oral, left hind paw (injected side, NGF 1 μg/site), 1 hr)?
The value was 118 ± 17 mmHg.

What about the “Paw Withdrawal Threshold (mmHg)” value ([2]; 3 mg/kg oral, left hind paw (injected side, NGF 1 μg/site), 3 hr) of the same compound?
The value was 121 ± 21 mmHg.

And the “Paw Withdrawal Threshold (mmHg)” value ([2]; 3 mg/kg oral, left hind paw (injected side, NGF 1 μg/site), 6 hr)?
The value was 106 ± 11 mmHg.

What about the “Paw Withdrawal Threshold (mmHg)” value ([2]; 3 mg/kg oral, left hind paw (injected side, NGF 1 μg/site), Pre) of the same compound?
Its value is 152 ± 26 mmHg.

And the “Paw Withdrawal Threshold (mmHg)” value ([2]; 3 mg/kg oral, right hind paw (uninjected side), 1 hr)?
The value was 133 ± 19 mmHg.

What about the “Paw Withdrawal Threshold (mmHg)” value [2, 6] of the same compound?
Its value is 141 ± 10 mmHg.

And the “Paw Withdrawal Threshold (mmHg)” value [2, 7]?
Its value is 144 ± 23 mmHg.

What about the “Paw Withdrawal Threshold (mmHg)” value [2, 8] of the same compound?
Its value is 148 ± 25 mmHg.

What about the “Paw Withdrawal Threshold (mmHg)” value ([2]; 10 mg/kg oral, left hind paw (injected side, NGF 1 μg/site), 1 hr) of the same compound?
The value was 130 ± 20 mmHg.

And the “Paw Withdrawal Threshold (mmHg)” value ([2]; 10 mg/kg oral, left hind paw (injected side, NGF 1 μg/site), 3 hr)?
Its value is 134 ± 22 mmHg.

What about the “Paw Withdrawal Threshold (mmHg)” value ([2]; 10 mg/kg oral, left hind paw (injected side, NGF 1 μg/site), 6 hr) of the same compound?
Its value is 130 ± 18 mmHg.

What about the “Paw Withdrawal Threshold (mmHg)” value ([2]; 10 mg/kg oral, left hind paw (injected side, NGF 1 μg/site), Pre) of the same compound?
Its value is 136 ± 17 mmHg.

What about the “Paw Withdrawal Threshold (mmHg)” value ([2]; 10 mg/kg oral, right hind paw (uninjected side), 1 hr) of the same compound?
Its value is 144 ± 14 mmHg.

What about the “Paw Withdrawal Threshold (mmHg)” value [2, 9] of the same compound?
Its value is 139 ± 17 mmHg.

And the “Paw Withdrawal Threshold (mmHg)” value [2, 10]?
Its value is 139 ± 13 mmHg.

And the “Paw Withdrawal Threshold (mmHg)” value [2, 11]?
Its value is 139 ± 17 mmHg.
